Measured values published in paper PMC8232621, “Antimicrobial Activity of a Library of Thioxanthones and Their Potential as Efflux Pump Inhibitors” (Pharmaceuticals, 2021).
Where two headings read alike, the source gives them in different places.

Assays:
E. faecalis ATCC 29212 = assay: Antibacterial activity, broth microdilution MIC; assay type: cell-based; details: Enterococcus faecalis
Source text: (§1) The referred library of thioxanthones was initially tested for their antimicrobial activity against six bacterial strains: the Gram-negative Escherichia coli ATCC 25922, Pseudomonas aeruginosa ATCC 27853 and Salmonella enterica serovar Typhimurium SL1344 (SE03), with the acrA gene deleted, and the Gram-positive Staphylococcus aureus ATCC 29213, Enterococcus faecalis ATCC 29212 and the methicillin and ofloxacin-resistant clinical isolate S. aureus 272123. For the synergy assay, two clinically relevant isolates were used: the extended-spectrum β-lactamase (ESBL)-producing E. coli SA/2 [23] and the vancomycin-resistant E. faecalis (VRE) B3/101 [23]. The antibiotics used were cefotaxime (CTX) and vancomycin (VAN), respectively.
(§2) The minimum inhibitory concentration (MIC) for each compound was determined by broth microdilution method in a 96-well plate according to the Clinical and Laboratory Standard Institute (CLSI) guidelines. The medium used was MHB II. The concentrations tested ranged from 100 µM to 0.195 µM and were prepared from a stock solution of 10 mM in DMSO, for S. aureus 272123 and SE03; for the other strains, the concentrations tested ranged from 64 µg/mL to 4 µg/mL and were prepared from a stock solution of 10 mg/mL in DMSO. DMSO was used in subinhibitory concentrations (1% v/v). The MIC was determined by visual inspection.

S. aureus 272123 [1] = assay: Antibacterial activity, broth microdilution MIC; assay type: cell-based; details: Staphylococcus aureus, 272123, read-out: Minimum Inhibitory Concentration (MIC)
Source text: as §1, §2

S. aureus ATCC 29213 = assay: Antibacterial activity, broth microdilution MIC; assay type: cell-based; details: Staphylococcus aureus
Source text: as §1, §2

S. aureus 272123 [2] = assay: Real-time ethidium bromide accumulation assay (efflux pump inhibition); assay type: cell-based, Staphylococcus aureus; design: key: RFI = (RFtreated − RFuntreated)/RFuntreated at minute 60; details: compounds 50 µM, reserpine 25 µM, minute 60, EB 1 µg/mL
Method: (§3) The relative fluorescence index (RFI) was calculated based on the means of relative fluorescence units, and theses RFIs are depicted in Table 4.
(§4) The compounds were evaluated for their ability to inhibit the efflux of EB, an efflux pump substrate, in Salmonella enterica serovar Typhimurium SE03 and S. aureus 272123 strains, through real-time fluorimetry, monitoring the intracellular accumulation of EB, an efflux pump substrate. This was determined by the automated method using a CLARIOstar Plus plate reader (BMG Labtech, Ortenberg, Germany). Reserpine and CCCP were applied at 25 µM as positive controls, and the solvent DMSO was applied at 1% v/v. The bacterial strains were incubated in an appropriate culture media (TSB–S. aureus 272123; LB-B–SE03) at 37 °C until they reached an optical density (OD) of 0.6 at 600 nm. The culture was centrifuged at 13,000× g for 3 min, and the pellet was washed and resuspended with phosphate buffered saline (PBS, pH 7.4). The suspension was centrifuged again in the same conditions and resuspended in PBS.
(§5) Then, 50 µL of this solution were transferred into a 96-well black microtiter plate (Greiner Bio-One Hungary Kft, Mosonmagyaróvár, Fertősor, Hungary), and 50 µL of bacterial suspension (OD600 = 0.6) were added to each well. The plates were placed into the CLARIOstar plate reader, and the fluorescence was monitored at excitation and emission wavelengths of 530 nm and 600 nm, respectively, every minute for one hour on a real-time basis. From the real-time data, the activity of the compounds, namely the relative fluorescence index (RFI) of the last time point (minute 60) of the EB accumulation assay, was calculated according to the following equation:(1) RFI=RFtreated−RFuntreated/RFuntreated where RFtreated is the relative fluorescence (RF) at the last time point of EB accumulation curve in the presence of the compound, and RFuntreated is the RF at the last time point of the EB accumulation curve of the untreated control, having only the solvent (DMSO) control. The accumulation curves were designed using Microsoft Excel®. The samples were tested in triplicate, and the RFI presented comes from the average of these three values. The accumulation graphs present the mean of the RF at the last time point. The standard deviation (SD) was calculated automatically and included in the RF graphs.

SE03 = assay: as above; assay type: cell-based, Salmonella enterica serovar Typhimurium SL1344; details: compounds 50 µM (compound 12 at 17 µM), CCCP 25 µM, minute 60, EB 1 µg/mL
Method: as §3, §4, §5

S. marcescens = assay: Quorum sensing inhibition assay (pigment production); assay type: cell-based, Serratia marcescens AS-1; details: Serratia marcescens, read-out: Quorum Sensing Inhibition (mm) ± SD
Method: (§6) Concerning the QS inhibition assay, the sensor strain Chromobacterium violaceum CV026 and the AHL producer strain Sphingomonas paucimobilis Ezf 10-17 (EZF) were inoculated as parallel lines, and the AHL producers Chromobacterium violaceum wild-type 85 (wt85) and Serratia marcescens AS-1 were inoculated as a single line. The interaction between the strains and compounds 2–18 was evaluated as the reduction of pigment production, in millimeters (mm) (Table 5) with promethazine (PMZ) as a positive control.
(§7) The QS inhibitory effect of the compounds was examined on the EZF and the sensor CV026 strains, on the wt85 strain, and on S. marcescens. The method used was the parallel inoculation method, where pair combinations of the used sensor strain CV026 and the N-acyl-homoserine lactone (AHL) producing strain EZF were inoculated directly onto the LB*-A agar surface in parallel, at an approximate distance of 5 mm from each other. S. marcescens AS-1 and wt85 were inoculated as a single line. Filter paper disks (7 mm in diameter) were placed on the center of the inoculated line(s) and impregnated with 8 µL of a solution of 10 mM of the compounds. […] The agar plates were incubated at room temperature (20 °C) for 24−48 h. The QS inhibition was accessed visually, through the inhibition of pigment production. The discolored, but intact, bacterial colonies were measured with a ruler.

EZF + CV026 = assay: Quorum sensing inhibition assay (pigment production), parallel inoculation; assay type: cell-based; details: disk with 8 µL of 10 mM solution, read-out: Quorum Sensing Inhibition (mm) ± SD
Method: as §6, §7

E. coli ATCC 25922 = assay: Antibacterial activity, broth microdilution MIC; assay type: cell-based; details: Escherichia coli, ATCC25922, read-out: Minimum Inhibitory Concentration (MIC)
Source text: as §1, §2

P. aeruginosa ATCC 27853 = assay: Antibacterial activity, broth microdilution MIC; assay type: cell-based; details: Pseudomonas aeruginosa, ATCC27853, read-out: Minimum Inhibitory Concentration (MIC)
Source text: as §1, §2

E. coli SA/2 = assay: Synergy with cefotaxime (antibiotic MIC in presence of compound); assay type: cell-based
Source text: as §1
The combined effect of the compounds and clinically relevant antimicrobial drugs was evaluated by determining the antibiotic’s MIC in the presence of each compound. […] The antibiotic tested was serially diluted, whereas the concentration of each compound was kept fixed. […]

[3] = ATCC29212, E. faecalis ATCC 29212, read-out: Minimum Inhibitory Concentration (MIC)
[4] = ATCC29213, S. aureus ATCC 29213, read-out: Minimum Inhibitory Concentration (MIC)

## CCCOc1ccc(NCCN(CC)CC)c2c(=O)c3ccccc3sc12 [Compound 2]
E. faecalis ATCC 29212; ATCC29212, read-out: Minimum Inhibitory Concentration (MIC)
  MIC: 83 µM
E. faecalis ATCC 29212; [3]
  MIC: 32 µg/mL
S. aureus 272123 [1]
  MIC: > 100 µM
S. aureus ATCC 29213; ATCC29213, read-out: Minimum Inhibitory Concentration (MIC)
  MIC: 83 µM
S. aureus ATCC 29213; [4]
  MIC: 32 µg/mL
S. aureus 272123 [2]
  RFI ± SD: 0.75 ± 0.08
SE03
  RFI ± SD: −0.02 ± 0.04
S. marcescens
  zone of inhibition at 10000 µM: 0 mm
EZF + CV026
  zone of inhibition at 10000 µM: 0 mm

## CCCOc1ccc(N2CCCCC2)c2c(=O)c3ccccc3sc12 [Compound 3]
E. faecalis ATCC 29212; [3]
  MIC: > 100 µM
S. aureus 272123 [1]
  MIC: > 100 µM
S. aureus ATCC 29213; [4]
  MIC: > 100 µM
S. aureus 272123 [2]
  RFI ± SD: 1.50 ± 0.04
SE03
  RFI ± SD: 0.67 ± 0.01
S. marcescens
  zone of inhibition at 10000 µM: 0 mm
EZF + CV026
  zone of inhibition at 10000 µM: 31 ± 0.8 mm

## CCCOc1ccc(Nc2nc(C)cc(C)n2)c2c(=O)c3ccccc3sc12 [Compound 8, 1-[(4,6-Dimethylpyrimidin-2-yl)amino]-4-propoxy-9H-thioxanthen-9-one]
E. coli ATCC 25922
  MIC: > 100 µM
E. faecalis ATCC 29212; [3]
  MIC: > 100 µM
P. aeruginosa ATCC 27853
  MIC: > 100 µM
S. aureus 272123 [1]
  MIC: > 100 µM
S. aureus ATCC 29213; [4]
  MIC: > 100 µM
E. coli SA/2
  decrease in the MIC of CTX: 4 fold
S. aureus 272123 [2]
  RFI ± SD: 0.24 ± 0.07
SE03
  RFI ± SD: 0.74 ± 0.08
S. marcescens
  zone of inhibition at 10000 µM: 0 mm
EZF + CV026
  zone of inhibition at 10000 µM: 32 ± 0.1 mm

## CCCOc1ccc(N2CCNC(=O)C2)c2c(=O)c3ccccc3sc12 [Compound 9, 4-(9-Oxo-4-propoxy-9H-thioxanthen-1-yl)piperazin-2-one]
E. coli ATCC 25922
  MIC: > 100 µM
E. faecalis ATCC 29212; [3]
  MIC: > 100 µM
P. aeruginosa ATCC 27853
  MIC: > 100 µM
S. aureus 272123 [1]
  MIC: > 100 µM
S. aureus ATCC 29213; [4]
  MIC: > 100 µM
S. aureus 272123 [2]
  RFI ± SD: 0.14 ± 0.02
SE03
  RFI ± SD: 1.54 ± 0.09
S. marcescens
  zone of inhibition at 10000 µM: 0 mm
EZF + CV026
  zone of inhibition at 10000 µM: 0 mm

## CCCOc1ccc(NCCN2CCOCC2)c2c(=O)c3ccccc3sc12 [Compound 11, 1-[(2-Morpholinoethyl)amino]-4-propoxy-9H-thioxanthen-9-one]
E. coli ATCC 25922
  MIC: > 100 µM
E. faecalis ATCC 29212; [3]
  MIC: > 100 µM
P. aeruginosa ATCC 27853
  MIC: > 100 µM
S. aureus 272123 [1]
  MIC: > 100 µM
S. aureus ATCC 29213; [4]
  MIC: > 100 µM
S. aureus 272123 [2]
  RFI ± SD: 0.89 ± 0.06
SE03
  RFI ± SD: 1.37 ± 0.054
S. marcescens
  zone of inhibition at 10000 µM: 31 ± 0.8 mm
EZF + CV026
  zone of inhibition at 10000 µM: 0 mm

## CCCOc1ccc(NS(=O)(=O)c2ccc(N)cc2)c2c(=O)c3ccccc3sc12 [Compound 13, 4-Amino-N-(9-oxo-4-propoxy-9H-thioxanthen-1-yl)benzenesulfonamide]
E. coli ATCC 25922
  MIC: > 100 µM
E. faecalis ATCC 29212; [3]
  MIC: > 100 µM
P. aeruginosa ATCC 27853
  MIC: > 100 µM
S. aureus 272123 [1]
  MIC: > 100 µM
S. aureus ATCC 29213; [4]
  MIC: > 100 µM
S. aureus 272123 [2]
  RFI ± SD: −0.18 ± 0.05
SE03
  RFI ± SD: 1.23 ± 0.18
S. marcescens
  zone of inhibition at 10000 µM: 0 mm
EZF + CV026
  zone of inhibition at 10000 µM: 51 ± 0.1 mm

## CCCOc1ccc(Br)c2c(=O)c3ccccc3sc12 [Compound 14, 1-Bromo-4-propoxy-9H-thioxanthen-9-one]
E. coli ATCC 25922
  MIC: > 100 µM
E. faecalis ATCC 29212; [3]
  MIC: > 100 µM
P. aeruginosa ATCC 27853
  MIC: > 100 µM
S. aureus 272123 [1]
  MIC: > 100 µM
S. aureus ATCC 29213; [4]
  MIC: > 100 µM
S. aureus 272123 [2]
  RFI ± SD: 1.13 ± 0.13
SE03
  RFI ± SD: 0.87 ± 0.11
S. marcescens
  zone of inhibition at 10000 µM: 0 mm
EZF + CV026
  zone of inhibition at 10000 µM: 0 mm

## CCCOc1ccc2ncnc3c2c1Sc1ccccc1-3 [Compound 15]
E. coli ATCC 25922
  MIC: > 100 µM
E. faecalis ATCC 29212; [3]
  MIC: > 100 µM
P. aeruginosa ATCC 27853
  MIC: > 100 µM
S. aureus 272123 [1]
  MIC: > 100 µM
S. aureus ATCC 29213; [4]
  MIC: > 100 µM
S. aureus 272123 [2]
  RFI ± SD: −0.07 ± 0.50
SE03
  RFI ± SD: 0.54 ± 0.11
S. marcescens
  zone of inhibition at 10000 µM: 32 ± 0.5 mm
EZF + CV026
  zone of inhibition at 10000 µM: 50 ± 0.1 mm

## CCCOc1ccc2nc(N)nc3c2c1Sc1ccccc1-3 [Compound 16]
E. coli ATCC 25922
  MIC: > 100 µM
E. faecalis ATCC 29212; [3]
  MIC: > 100 µM
P. aeruginosa ATCC 27853
  MIC: > 100 µM
S. aureus 272123 [1]
  MIC: > 100 µM
S. aureus ATCC 29213; [4]
  MIC: > 100 µM
S. aureus 272123 [2]
  RFI ± SD: 0.96 ± 0.27
SE03
  RFI ± SD: 7.52 ± 0.01
S. marcescens
  zone of inhibition at 10000 µM: 0 mm
EZF + CV026
  zone of inhibition at 10000 µM: 29 ± 0.8 mm

## CCCOc1ccc2nc(NCc3ccccc3Cl)nc3c2c1Sc1ccccc1-3 [Compound 17]
E. coli ATCC 25922
  MIC: > 100 µM
E. faecalis ATCC 29212; [3]
  MIC: > 100 µM
P. aeruginosa ATCC 27853
  MIC: > 100 µM
S. aureus 272123 [1]
  MIC: > 100 µM
S. aureus ATCC 29213; [4]
  MIC: > 100 µM
S. aureus 272123 [2]
  RFI ± SD: 9.69 ± 0.95
SE03
  RFI ± SD: 25.51 ± 2.93
S. marcescens
  zone of inhibition at 10000 µM: 0 mm
EZF + CV026
  zone of inhibition at 10000 µM: 49 ± 0.5 mm
